Experimental data from PMC5218480 (PLoS ONE, 2017).

System: MV-4-11 cells
Assay: Gene expression microarray analysis (Affymetrix PrimeView) and GSEA
Type: cell-based, human
Parameters: RFU PODN (11730768_x_at) / Fold change /veh PODN (11730768_x_at) / RFU LINC00158 (11744669_a_at) / Fold change /veh LINC00158 (11744669_a_at) / RFU DUSP10 (11751237_a_at) / Fold change /veh DUSP10 (11751237_a_at) / RFU ID3 (11757404_x_at) / Fold change /veh ID3 (11757404_x_at) / RFU PLEKHG5 (11737974_s_at) / Fold change /veh PLEKHG5 (11737974_s_at) / RFU LRRC4B (11730491_at) / Fold change /veh LRRC4B (11730491_at) / RFU GIMAP4 (11747438_a_at) / Fold change /veh GIMAP4 (11747438_a_at) / RFU KRT8 (11758183_x_at) / Fold change /veh KRT8 (11758183_x_at) / RFU CNN1 (11734310_a_at) / Fold change /veh CNN1 (11734310_a_at) / RFU VPS37D (11726825_at) / Fold change /veh VPS37D (11726825_at) / RFU C10orf10 (11716522_x_at) / Fold change /veh C10orf10 (11716522_x_at) / RFU KIR2DL2 /// KIR2DL4 /// KIR2DL5A /// KIR2DL5B /// KIR2DS1 /// KIR2DS2 /// KIR2DS3 /// KIR2DS4 /// KIR3DL3 /// KIR3DL3 /// KIR3DS1 (11738374_at) / Fold change /veh KIR2DL2 /// KIR2DL4 /// KIR2DL5A /// KIR2DL5B /// KIR2DS1 /// KIR2DS2 /// KIR2DS3 /// KIR2DS4 /// KIR3DL3 /// KIR3DL3 /// KIR3DS1 (11738374_at) / RFU C1QL1 (11718748_at) / Fold change /veh C1QL1 (11718748_at) / RFU TMPRSS4 (11747572_a_at) / Fold change /veh TMPRSS4 (11747572_a_at) / RFU HAMP (11756126_x_at) / Fold change /veh HAMP (11756126_x_at) / RFU RNFT2 (11725882_a_at) / Fold change /veh RNFT2 (11725882_a_at) / RFU NR4A2 (11747474_a_at) / Fold change /veh NR4A2 (11747474_a_at) / RFU ABCC12 (11746883_a_at) / Fold change /veh ABCC12 (11746883_a_at) / RFU TMEM136 (11760407_x_at) / Fold change /veh TMEM136 (11760407_x_at) / RFU CLDN22 /// WWC2 (11732394_at) / Fold change /veh CLDN22 /// WWC2 (11732394_at) / RFU HLA-DPB1 (11760878_x_at) / Fold change /veh HLA-DPB1 (11760878_x_at) / RFU SPINT1 (11716480_a_at) / Fold change /veh SPINT1 (11716480_a_at) / RFU GAP43 (11754022_s_at) / Fold change /veh GAP43 (11754022_s_at) / RFU A4GNT (11735810_at) / Fold change /veh A4GNT (11735810_at) / RFU PRB3 (11715151_x_at) / Fold change /veh PRB3 (11715151_x_at) / RFU TUBB4B (11761932_at) / Fold change /veh TUBB4B (11761932_at) / RFU CAPN14 (11732068_a_at) / Fold change /veh CAPN14 (11732068_a_at) / RFU TMCC2 (11721928_a_at) / Fold change /veh TMCC2 (11721928_a_at) / RFU IRGQ (11745062_a_at) / Fold change /veh IRGQ (11745062_a_at) / RFU FAM174B (11720279_a_at) / Fold change /veh FAM174B (11720279_a_at) / RFU TMPRSS4 (11748680_a_at) / Fold change /veh TMPRSS4 (11748680_a_at) / RFU FAM212B (11763350_a_at) / Fold change /veh FAM212B (11763350_a_at) / RFU PLEKHG5 (11743358_a_at) / Fold change /veh PLEKHG5 (11743358_a_at) / RFU ZSCAN30 (11745921_a_at) / Fold change /veh ZSCAN30 (11745921_a_at) / RFU CMKLR1 (11741424_a_at) / Fold change /veh CMKLR1 (11741424_a_at) / RFU LOC101060620 /// MAPK8IP1 (11723275_at) / Fold change /veh LOC101060620 /// MAPK8IP1 (11723275_at) / RFU SPTSSB (11747773_x_at) / Fold change /veh SPTSSB (11747773_x_at) / RFU PRSS12 (11739890_at) / Fold change /veh PRSS12 (11739890_at) / RFU BIN1 (11741810_x_at) / Fold change /veh BIN1 (11741810_x_at) / RFU WNT11 (11732464_a_at) / Fold change /veh WNT11 (11732464_a_at) / RFU C10orf10 (11716521_a_at) / Fold change /veh C10orf10 (11716521_a_at) / RFU C5orf56 (11738089_at) / Fold change /veh C5orf56 (11738089_at) / RFU CYB561 (11721691_x_at) / Fold change /veh CYB561 (11721691_x_at) / RFU ANKRD19P (11752326_a_at) / Fold change /veh ANKRD19P (11752326_a_at) / RFU OR2T12 /// OR2T33 /// OR2T8 (11738714_s_at) / Fold change /veh OR2T12 /// OR2T33 /// OR2T8 (11738714_s_at) / RFU VCAN (11748164_a_at) / Fold change /veh VCAN (11748164_a_at) / RFU JSRP1 (11732532_at) / Fold change /veh JSRP1 (11732532_at) / RFU KRTAP10-11 (11738290_x_at) / Fold change /veh KRTAP10-11 (11738290_x_at) / RFU MYO3A (11730013_a_at) / Fold change /veh MYO3A (11730013_a_at) / RFU EBF3 (11725865_a_at) / Fold change /veh EBF3 (11725865_a_at) / RFU CAMK2N1 (11719241_x_at) / Fold change /veh CAMK2N1 (11719241_x_at) / RFU C5orf56 (11738088_a_at) / Fold change /veh C5orf56 (11738088_a_at) / RFU OLFML3 (11715873_a_at) / Fold change /veh OLFML3 (11715873_a_at) / RFU LOC100653217 /// NTM (11731650_a_at) / Fold change /veh LOC100653217 /// NTM (11731650_a_at) / RFU MAPK11 (11762145_a_at) / Fold change /veh MAPK11 (11762145_a_at) / RFU FIZ1 (11724087_x_at) / Fold change /veh FIZ1 (11724087_x_at) / RFU OASL (11726364_x_at) / Fold change /veh OASL (11726364_x_at) / RFU SOX15 (11748057_x_at) / Fold change /veh SOX15 (11748057_x_at) / RFU CD79A (11719716_a_at) / Fold change /veh CD79A (11719716_a_at) / RFU HIST1H1D (11736915_at) / Fold change /veh HIST1H1D (11736915_at) / RFU CASKIN2 (11723855_a_at) / Fold change /veh CASKIN2 (11723855_a_at) / RFU LOC730098 (11760151_x_at) / Fold change /veh LOC730098 (11760151_x_at) / RFU OR4N2 (11742367_at) / Fold change /veh OR4N2 (11742367_at) / RFU PRRT2 (11749266_a_at) / Fold change /veh PRRT2 (11749266_a_at) / RFU SNX32 (11753110_a_at) / Fold change /veh SNX32 (11753110_a_at) / RFU CDHR5 (11726645_a_at) / Fold change /veh CDHR5 (11726645_a_at) / RFU RCAN1 (11760418_a_at) / Fold change /veh RCAN1 (11760418_a_at) / RFU FAM167A (11723789_a_at) / Fold change /veh FAM167A (11723789_a_at) / RFU FAM26E (11764081_at) / Fold change /veh FAM26E (11764081_at) / RFU ISYNA1 (11749810_s_at) / Fold change /veh ISYNA1 (11749810_s_at) / RFU ACY1 (11761880_at) / Fold change /veh ACY1 (11761880_at) / RFU 11764098_at / Fold change /veh 11764098_at / RFU SAMD14 (11745864_x_at) / Fold change /veh SAMD14 (11745864_x_at) / RFU NPB (11741838_a_at) / Fold change /veh NPB (11741838_a_at) / RFU TMPRSS6 (11731388_a_at) / Fold change /veh TMPRSS6 (11731388_a_at) / RFU KRTAP10-2 (11738614_at) / Fold change /veh KRTAP10-2 (11738614_at) / RFU ARHGAP8 /// PRR5-ARHGAP8 (11727945_x_at) / Fold change /veh ARHGAP8 /// PRR5-ARHGAP8 (11727945_x_at) / RFU KRTAP5-7 /// NADSYN1 (11734609_at) / Fold change /veh KRTAP5-7 /// NADSYN1 (11734609_at) / RFU RASL12 (11751679_a_at) / Fold change /veh RASL12 (11751679_a_at) / RFU CDKN2B (11736163_a_at) / Fold change /veh CDKN2B (11736163_a_at) / RFU PRF1 (11729649_at) / Fold change /veh PRF1 (11729649_at) / RFU, ZNF638 /// ZNF638-IT1 / Fold change vs veh, ZNF638 /// ZNF638-IT1 / RFU, PANK3 / Fold change vs veh, PANK3 / RFU, SH3YL1 / Fold change vs veh, SH3YL1 / RFU, ZEB2 / Fold change vs veh, ZEB2 / RFU, NRIP1 / Fold change vs veh, NRIP1 / RFU, PTTG1IP / Fold change vs veh, PTTG1IP / RFU, CAPN2 / Fold change vs veh, CAPN2 / RFU, MED14 / Fold change vs veh, MED14 / RFU, SNORA58 / Fold change vs veh, SNORA58 / RFU, C1orf63 / Fold change vs veh, C1orf63 / RFU, LRRFIP1 / Fold change vs veh, LRRFIP1 / RFU, NDUFAF7 / Fold change vs veh, NDUFAF7 / RFU, SLC12A2 / Fold change vs veh, SLC12A2 / RFU, IBTK / Fold change vs veh, IBTK / RFU, ESF1 / Fold change vs veh, ESF1 / Fold change vs veh, TMEM50B / RFU, TAOK1 / Fold change vs veh, TAOK1 / RFU, ACBD3 / Fold change vs veh, ACBD3 / RFU, TMA16 / Fold change vs veh, TMA16 / RFU, RWDD3 / Fold change vs veh, RWDD3 / RFU, BCAT1 / Fold change vs veh, BCAT1 / RFU, EDEM3 / Fold change vs veh, EDEM3 / RFU, TMEM33 / Fold change vs veh, TMEM33 / RFU, WDR75 / Fold change vs veh, WDR75 / RFU, AHCTF1 / Fold change vs veh, AHCTF1 / RFU, TFRC / Fold change vs veh, TFRC / RFU, ZDHHC17 / Fold change vs veh, ZDHHC17 / RFU, NOM1 / Fold change vs veh, NOM1 / RFU, ARL8B / Fold change vs veh, ARL8B / RFU, ZBTB11 / Fold change vs veh, ZBTB11 / RFU, TAMM41 / Fold change vs veh, TAMM41 / RFU, KIAA1704 /// LOC100996395 / Fold change vs veh, KIAA1704 /// LOC100996395 / RFU, ING1 / Fold change vs veh, ING1 / RFU, TRMT61B / Fold change vs veh, TRMT61B / RFU, FUBP3 / Fold change vs veh, FUBP3 / RFU, TP53 / Fold change vs veh, TP53 / RFU, TNKS2 / Fold change vs veh, TNKS2 / RFU, ZFP14 / Fold change vs veh, ZFP14 / RFU, ACTR2 / Fold change vs veh, ACTR2 / RFU, PPP3R1 / Fold change vs veh, PPP3R1 / RFU, PIK3R1 / Fold change vs veh, PIK3R1 / RFU, HNRNPA1 / Fold change vs veh, HNRNPA1 / RFU, RNF170 / Fold change vs veh, RNF170 / RFU, ZNF28 / Fold change vs veh, ZNF28 / RFU, RNGTT / Fold change vs veh, RNGTT / RFU, OGT / Fold change vs veh, OGT / RFU, BRD1 / Fold change vs veh, BRD1 / RFU, MARS / Fold change vs veh, MARS / RFU, ZNF655 / Fold change vs veh, ZNF655 / RFU, FAHD1 / Fold change vs veh, FAHD1 / RFU, BDP1 / Fold change vs veh, BDP1 / RFU, LRRCC1 / Fold change vs veh, LRRCC1 / RFU, ARID1A / Fold change vs veh, ARID1A / RFU, ZNF146 / Fold change vs veh, ZNF146 / RFU, ZNF330 / Fold change vs veh, ZNF330 / RFU, GPN3 / Fold change vs veh, GPN3 / RFU, C9orf123 / Fold change vs veh, C9orf123 / RFU, N4BP2L2 / Fold change vs veh, N4BP2L2 / RFU, ARFIP1 / Fold change vs veh, ARFIP1 / RFU, FAM179B / Fold change vs veh, FAM179B / RFU, BCL10 / Fold change vs veh, BCL10 / RFU, UHRF1BP1L / Fold change vs veh, UHRF1BP1L / RFU, BET1 / Fold change vs veh, BET1 / RFU, CNOT2 / Fold change vs veh, CNOT2 / RFU, ZNF268 / Fold change vs veh, ZNF268 / Fold change vs veh, ZNF507 / RFU, DGCR2 / Fold change vs veh, DGCR2 / RFU, WDSUB1 / Fold change vs veh, WDSUB1 / Fold change vs veh, HSP90B1 /// MIR3652 / RFU, ADSS / Fold change vs veh, ADSS / RFU, GK / Fold change vs veh, GK / RFU, ZNF148 / Fold change vs veh, ZNF148 / RFU, TAF9 / Fold change vs veh, TAF9 / RFU, SLC1A5 / Fold change vs veh, SLC1A5 / RFU, SLMO2 / Fold change vs veh, SLMO2 / RFU, ABCC4 / Fold change vs veh, ABCC4 / RFU, LOC101060439 /// RAP1B / Fold change vs veh, LOC101060439 /// RAP1B / RFU, RFX7 / Fold change vs veh, RFX7 / RFU, GTPBP10 / Fold change vs veh, GTPBP10 / RFU, CNEP1R1 / Fold change vs veh, CNEP1R1 / RFU, BIVM-ERCC5 /// ERCC5 / Fold change vs veh, BIVM-ERCC5 /// ERCC5 / RFU, ILF3 / Fold change vs veh, ILF3 / RFU 11762660_at / Fold change /veh 11762660_at / RFU VCAN (11757783_s_at) / Fold change /veh VCAN (11757783_s_at) / RFU DDX43 (11728927_at) / Fold change /veh DDX43 (11728927_at) / RFU KRT8 (11758188_x_at) / Fold change /veh KRT8 (11758188_x_at) / RFU NKD1 (11759106_at) / Fold change /veh NKD1 (11759106_at) / RFU SRD5A1 (11742802_a_at) / Fold change /veh SRD5A1 (11742802_a_at) / RFU TPSAB1 /// TPSB2 (11721975_s_at) / Fold change /veh TPSAB1 /// TPSB2 (11721975_s_at) / RFU GSTM3 (11746129_a_at) / Fold change /veh GSTM3 (11746129_a_at) / RFU IL23R (11737362_x_at) / Fold change /veh IL23R (11737362_x_at) / RFU TMEM51 (11727254_a_at) / Fold change /veh TMEM51 (11727254_a_at) / RFU PIWIL2 (11732686_x_at) / Fold change /veh PIWIL2 (11732686_x_at) / RFU ORM1 (11744905_x_at) / Fold change /veh ORM1 (11744905_x_at) / RFU CCDC152 (11743942_at) / Fold change /veh CCDC152 (11743942_at) / RFU ECM1 (11717891_a_at) / Fold change /veh ECM1 (11717891_a_at) / RFU IL23R (11748794_a_at) / Fold change /veh IL23R (11748794_a_at) / RFU TNFAIP8L3 (11732012_x_at) / Fold change /veh TNFAIP8L3 (11732012_x_at) / RFU MBOAT4 (11741988_at) / Fold change /veh MBOAT4 (11741988_at) / RFU 11764193_at / Fold change /veh 11764193_at / RFU TMEM53 (11763286_at) / Fold change /veh TMEM53 (11763286_at) / RFU MAGEB2 (11727129_at) / Fold change /veh MAGEB2 (11727129_at) / RFU TMEM200A (11744735_a_at) / Fold change /veh TMEM200A (11744735_a_at) / RFU CCDC152 (11751479_a_at) / Fold change /veh CCDC152 (11751479_a_at) / RFU FAM211A (11726209_a_at) / Fold change /veh FAM211A (11726209_a_at) / RFU RGS16 (11746705_a_at) / Fold change /veh RGS16 (11746705_a_at) / RFU VCAN (11755009_s_at) / Fold change /veh VCAN (11755009_s_at) / RFU RHOB (11743442_s_at) / Fold change /veh RHOB (11743442_s_at) / RFU RGS16 (11720943_a_at) / Fold change /veh RGS16 (11720943_a_at) / RFU RGS16 (11720944_at) / Fold change /veh RGS16 (11720944_at) / RFU, VPS4B / Fold change vs veh, VPS4B / RFU, CREB1 / Fold change vs veh, CREB1 / RFU, DNAJC13 / Fold change vs veh, DNAJC13 / RFU, GNAQ / Fold change vs veh, GNAQ / RFU, CDK5R1 / Fold change vs veh, CDK5R1 / RFU, ZRANB3 / Fold change vs veh, ZRANB3 / RFU, CUL4A / Fold change vs veh, CUL4A / RFU, CCNY / Fold change vs veh, CCNY / RFU, UFL1 / Fold change vs veh, UFL1 / RFU, COG3 / Fold change vs veh, COG3 / RFU, DIAPH2 / Fold change vs veh, DIAPH2 / RFU, SKA2 / Fold change vs veh, SKA2 / RFU, AFF3 / Fold change vs veh, AFF3 / RFU, LMF1 / Fold change vs veh, LMF1 / RFU, IPO11 / Fold change vs veh, IPO11 / RFU, DFFB / Fold change vs veh, DFFB / RFU, FOXP1 / Fold change vs veh, FOXP1 / RFU, CARD8 / Fold change vs veh, CARD8 / RFU, STRN3 / Fold change vs veh, STRN3 / RFU, ADK / Fold change vs veh, ADK / RFU, RASSF2 / Fold change vs veh, RASSF2 / RFU, WIPF1 / Fold change vs veh, WIPF1 / RFU, LARP1B / Fold change vs veh, LARP1B / RFU, RASA1 / Fold change vs veh, RASA1 / RFU, RB1 / Fold change vs veh, RB1 / RFU, PPFIA1 / Fold change vs veh, PPFIA1 / RFU, MAT2A / Fold change vs veh, MAT2A / RFU, CCT5 / Fold change vs veh, CCT5 / RFU, WDR92 / Fold change vs veh, WDR92 / RFU, CUX1 / Fold change vs veh, CUX1 / RFU, TTC7A / Fold change vs veh, TTC7A / RFU, TMEM135 / Fold change vs veh, TMEM135 / RFU, DEPTOR / Fold change vs veh, DEPTOR / RFU, CPM / Fold change vs veh, CPM / RFU, DNAJB6 / Fold change vs veh, DNAJB6 / RFU, CACNA2D3 / Fold change vs veh, CACNA2D3 / RFU, DTX4 / Fold change vs veh, DTX4 / RFU, TFCP2 / Fold change vs veh, TFCP2 / RFU, GMCL1 /// GMCL1P1 / Fold change vs veh, GMCL1 /// GMCL1P1 / RFU, AEBP2 / Fold change vs veh, AEBP2 / RFU, SNHG1 /// SNORD22 /// SNORD25 /// SNORD26 /// SNORD27 /// SNORD28 /// SNORD29 /// SNORD31 / Fold change vs veh, SNHG1 /// SNORD22 /// SNORD25 /// SNORD26 /// SNORD27 /// SNORD28 /// SNORD29 /// SNORD31 / Fold change (Aza/veh), C12orf56 (ProbeSet 11735607_a_at) / Fold change (ACY-1035/veh), C12orf56 (ProbeSet 11735607_a_at) / Fold change (Aza/veh), FGFR1OP (ProbeSet 11751329_s_at) / Fold change (ACY-1035/veh), FGFR1OP (ProbeSet 11751329_s_at) / Fold change (Aza/veh), VPS36 (ProbeSet 11739960_a_at) / Fold change (ACY-1035/veh), VPS36 (ProbeSet 11739960_a_at) / RFU SYPL1 (11715823_x_at) / Fold change /veh SYPL1 (11715823_x_at) / RFU IGFBP7 (11715501_s_at) / Fold change /veh IGFBP7 (11715501_s_at) / RFU REEP3 (11722064_at) / Fold change /veh REEP3 (11722064_at) / RFU IGLL1 (11728026_x_at) / Fold change /veh IGLL1 (11728026_x_at): dose or concentration left out as unconfirmed
Settings: ProbeSet 11749645_x_at; LIST B

Question: With `Nc1ncn([C@@H]2O[C@H](CO)[C@@H](O)[C@H]2O)c(=O)n1` [azacitidine] as the molecule, how does the “RFU, ZNF268” value read?
Answer: The value was 156.52 RFU.
